This is an account of results in publication PMC4114195, “Identification of a cyclic-di-GMP-modulating response regulator that impacts biofilm formation in a model sulfate reducing bacterium” (Frontiers in Microbiology, 2014).

Format in all cases: biochemical
One test deals with T1, DVU1181 HD-GYP domain (Nitratidesulfovibrio vulgaris, UniProt Q72CV2).
T1 construct: gene DVU_1181; isolated HD-GYP domain 176-356; N-terminal 8xHis-Strep II-MBP tag cut by TEV; E. coli
T1 sequence (Q72CV2 176-356): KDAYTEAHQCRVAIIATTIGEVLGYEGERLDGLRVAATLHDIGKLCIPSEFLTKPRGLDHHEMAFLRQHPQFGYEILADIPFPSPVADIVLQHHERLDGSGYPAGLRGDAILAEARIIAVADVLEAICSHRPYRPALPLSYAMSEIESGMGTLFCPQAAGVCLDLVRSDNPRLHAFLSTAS
The test can be described thus: absorbance at […] nm, phosphodiesterase assay. The conditions noted are these: 5 mM bis-pNPP, 1 or 10 mM MnCl2, pH 8.0.

The target in a further test is T2, DVU0330 HD domain (Nitratidesulfovibrio vulgaris, UniProt Q72F84).
T2 construct: gene DVU_0330; isolated HD (HDOD, no GYP motif) domain 230-412; N-terminal 8xHis-Strep II-MBP tag cut by TEV; E. coli
T2 sequence (Q72F84 230-412): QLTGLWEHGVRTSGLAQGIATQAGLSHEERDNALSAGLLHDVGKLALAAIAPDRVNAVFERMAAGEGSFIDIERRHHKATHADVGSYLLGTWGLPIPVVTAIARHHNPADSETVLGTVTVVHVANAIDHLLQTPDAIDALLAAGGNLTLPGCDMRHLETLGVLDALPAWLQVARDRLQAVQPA
The test can be described thus: absorbance at […] nm, phosphodiesterase assay. The conditions noted are these: 5 mM bis-pNPP, 1 or 10 mM MnCl2, pH 8.0.

For another test, the target named is T3, DVU0722 HD-GYP domain (Nitratidesulfovibrio vulgaris, UniProt Q72E57).
T3 construct: gene DVU_0722; isolated HD-GYP domain 336-518; N-terminal 8xHis-Strep II-MBP tag cut by TEV; E. coli
T3 sequence (Q72E57 336-518): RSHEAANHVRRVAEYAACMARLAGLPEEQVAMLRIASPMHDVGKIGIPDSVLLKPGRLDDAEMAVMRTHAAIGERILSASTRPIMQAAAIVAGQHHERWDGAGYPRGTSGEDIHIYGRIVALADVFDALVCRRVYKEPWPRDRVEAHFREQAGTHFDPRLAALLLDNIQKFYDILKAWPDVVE
The test is described as follows: HILIC-TOF MS, c-di-GMP hydrolysis. The conditions noted are these: 100 μM c-di-GMP, 10 mM MnCl2, pH 8.0, room temperature, 24 h.

Test [1] deals with T4, DVU0408 (Nitratidesulfovibrio vulgaris, UniProt Q72F10).
T4 construct: gene DVU_0408; full length (gene 2148 bp, about 715 residues), GGDEF-EAL response regulator; E. coli
T4 sequence (Q72F10 1-715): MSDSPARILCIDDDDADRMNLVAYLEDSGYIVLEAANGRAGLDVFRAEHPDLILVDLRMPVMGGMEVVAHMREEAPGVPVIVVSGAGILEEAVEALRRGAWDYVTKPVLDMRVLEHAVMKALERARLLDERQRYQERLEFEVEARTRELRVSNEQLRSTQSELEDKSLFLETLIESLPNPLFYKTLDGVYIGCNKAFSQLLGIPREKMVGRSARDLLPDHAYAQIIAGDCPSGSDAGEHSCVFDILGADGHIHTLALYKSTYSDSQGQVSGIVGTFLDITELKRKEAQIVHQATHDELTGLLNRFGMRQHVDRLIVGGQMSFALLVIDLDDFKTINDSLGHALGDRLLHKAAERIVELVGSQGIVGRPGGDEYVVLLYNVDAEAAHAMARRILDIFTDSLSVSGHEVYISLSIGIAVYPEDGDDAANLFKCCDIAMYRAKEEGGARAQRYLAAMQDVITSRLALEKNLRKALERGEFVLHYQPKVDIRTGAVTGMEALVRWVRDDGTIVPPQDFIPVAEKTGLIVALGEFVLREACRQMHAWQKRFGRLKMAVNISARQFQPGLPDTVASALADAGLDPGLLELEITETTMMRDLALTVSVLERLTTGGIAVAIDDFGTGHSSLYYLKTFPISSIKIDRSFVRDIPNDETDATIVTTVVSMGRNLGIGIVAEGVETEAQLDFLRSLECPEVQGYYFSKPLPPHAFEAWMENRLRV
The test can be described thus: HPLC, phosphodiesterase assay, pGpG formed. The conditions noted are these: 100 μM c-di-GMP, 2 mM MnCl2.

The target of the next test is T5, DVUA0086 HD-GYP domain (Nitratidesulfovibrio vulgaris, UniProt Q72WK3).
T5 construct: isolated HD-GYP domain 164-363; N-terminal 6xHis tag cut by TEV; E. coli; gene on native plasmid pDV1
T5 sequence (Q72WK3 164-363): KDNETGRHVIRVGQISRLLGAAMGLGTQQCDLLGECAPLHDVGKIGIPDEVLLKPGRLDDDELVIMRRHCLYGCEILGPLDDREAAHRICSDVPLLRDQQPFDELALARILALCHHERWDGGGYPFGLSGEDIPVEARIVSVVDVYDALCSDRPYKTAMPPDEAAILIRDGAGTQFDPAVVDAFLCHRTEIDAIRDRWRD
The test can be described thus: HILIC-TOF MS, c-di-GMP hydrolysis. The conditions noted are these: 100 μM c-di-GMP, 10 mM MnCl2, pH 8.0, room temperature, 24 h.

For another test, the target named is T6, DVU2933 HD-GYP domain (Nitratidesulfovibrio vulgaris, UniProt Q727C2).
T6 construct: gene DVU_2933; isolated HD-GYP domain 282-458; N-terminal 6xHis tag cut by TEV; E. coli
T6 sequence (Q727C2 282-458): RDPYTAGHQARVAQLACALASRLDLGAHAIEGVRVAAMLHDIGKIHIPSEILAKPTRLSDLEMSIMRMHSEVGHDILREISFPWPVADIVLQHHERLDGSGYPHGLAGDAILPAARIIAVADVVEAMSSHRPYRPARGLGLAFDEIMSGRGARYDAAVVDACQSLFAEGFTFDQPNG
The test can be described thus: HILIC-TOF MS, c-di-GMP hydrolysis. The conditions noted are these: 100 μM c-di-GMP, 10 mM MnCl2, pH 8.0, room temperature, 24 h.

The target of test [2] is T4, DVU0408. The test can be described thus: HPLC, c-di-GMP hydrolysis with added GTP. The conditions noted are these: 100 μM GTP, 100 μM c-di-GMP, 2 mM MnCl2; proposed allosteric at inactive GGDEF domain.

`O=[N+]([O-])c1ccc(OP(=O)(O)Oc2ccc([N+](=O)[O-])cc2)cc1` [bis-pNPP]: the “absorbance at 410 nm, phosphodiesterase assay” value is “DVU0722 and DVU1181 showed slower activity” on DVU1181 HD-GYP domain; “DVU0330 that lacks the GYP motif showed very low activity” at DVU0330 HD domain.
As for `Nc1nc2c(ncn2[C@@H]2O[C@@H]3COP(=O)(O)O[C@H]4[C@@H](O)[C@H](n5cnc6c(=O)[nH]c(N)nc65)O[C@@H]4COP(=O)(O)O[C@H]3[C@H]2O)c(=O)[nH]1` [c-di-GMP], the “HILIC-TOF MS, c-di-GMP hydrolysis” value on DVU0722 HD-GYP domain was “DVU0722 protein also hydrolyzed most of the c-di-GMP to pGpG”; on DVUA0086 HD-GYP domain, “DVUA0086 protein had maximum activity and completely hydrolyzed c-di-GMP”; on DVU2933 HD-GYP domain, “DVU2933 protein had lower activity, but again pGpG was the main product formed”. On DVU0408 [1], the “HPLC, phosphodiesterase assay, pGpG formed” value was “it did have PDE activity against c-di-GMP”.
As for `Nc1nc2c(ncn2[C@@H]2O[C@H](COP(=O)(O)OP(=O)(O)OP(=O)(O)O)[C@@H](O)[C@H]2O)c(=O)[nH]1` [GTP], the “HPLC, c-di-GMP hydrolysis with added GTP” value on DVU0408 [2] is “There was an increase in the pGpG peak upon addition of GTP”.
